Data: patent US10919890B2, “Salts and pharmaceutical compositions thereof for the treatment of inflammatory disorders” (GALAPAGOS NV, priority 2014, dated 2021)
Where a name gives a salt, the structure may show the parent alone.

Key:
[1] = Complementary salt analysis (stability, hygroscopicity); format: physicochemical; details: for Hygroscopicity: salt from Protocol 4; for Salt stability: stability evaluation 1 week at 40° C./75% Relative humidity
[2] = Dissolution in solvents (salt Protocol 1); format: physicochemical; details: DCM, up to 20 relative volumes, agitated at 50° C.
Description: The solvent is selected from isopropanol, ethanol, methanol, isopropyl acetate, THF, TBME, acetone, methyl ethyl ketone, DCM, and MeCN.

[3] = Dog bioavailability study; set-up: species or system beagle dogs; details: in vivo, po, 25 mg/kg
Description: The dogs are not fasted before dosing, and have free access to water. Every day of the treatment, a half food ration is provided after the T0 blood sampling, 8 to 17 min before treatment, and the second half ration is given just after dosing or 1 h after treatment for period 2. A 3 days washout period is ensured between treatments. […] The capsule composition is described in Table XX below. The capsules are administered orally with water (5-10 mL), to provide good oesophageal transit. Each animal is checked at least once daily. Blood is collected from the jugular vein into lithium heparinised tubes at T0 (before food administration) and then at 1 […], and 24 h post treatment. Plasma is then obtained from blood by centrifugation (2500 g for 10 min at 4° C.), and stored at -20° C. until analysis. […] After vortex mixing and centrifugation at 4° C., the supernatants are diluted with a 0.5 volume of HPLC grade water in a midi-eppendorf 96-well plate. The plate is sealed and shaken to ensure sample homogeneity prior to analysis. […] Pharmacokinetic analysis is performed using WinNonlinTM software version 5.3, using concentrations from individual animals. Non-compartmental analysis is applied to determine the PK parameters (Cmax, Tmax, AUC0-last, t1/2, etc. . . . ) Concentrations below the limit of detection are set to zero for descriptive statistics and PK parameter calculations.

Hygroscopicity [1]	Salt stability [1]	SMILES	also measured
non-hygroscopic	stable	Cl.O=C(Nc1nc2cccc(-c3ccc(CN4CCS(=O)(=O)CC4)cc3)n2n1)C1CC1 [Compound 1 HCl salt]	–
–	stable	O=C(Nc1nc2cccc(-c3ccc(CN4CCS(=O)(=O)CC4)cc3)n2n1)C1CC1.O=C(O)/C=C\C(=O)O [Compound 1 maleic acid salt]	–
non-hygroscopic	–	O=C(O)/C=C\C(=O)O [Compound 1 maleic acid salt]	–
–	–	O=C(Nc1nc2cccc(-c3ccc(CN4CCS(=O)(=O)CC4)cc3)n2n1)C1CC1 [Compound 1, cyclopropane carboxylic acid {5-[4-(1,1-dioxo-thiomorpholin-4-ylmethyl)-phenyl]-[1,2,4]triazolo[1,5-a]pyridin-2-yl}-amide]	Dissolution in solvent [2]: almost full dissolution
–	–	Cl.O.O.O.O=C(Nc1nc2cccc(-c3ccc(CN4CCS(=O)(=O)CC4)cc3)n2n1)C1CC1 [Compound 1.HCl.3H2O]	Tmax [3]: 2.0 h
